The values below are quoted from earlier work in paper PMC8170883 (Viruses, 2021).

The subject of one series is SARS-Cov-2. As to conditions: cell cultures.
A further series has as its system SARS-CoV-2 nsp12 (RdRp). The note with it: blocks binding of RNA to the enzyme.

Consider `CCN(CC)CCCC(C)Nc1ccnc2cc(Cl)ccc12` (stereo not shown) [Chloroquine, chloroquine], for which, in the series on SARS-Cov-2, the “Antiviral effect against SARS-CoV-2” value is reported as “antiviral effects”.
Turning to `CCN(CC)CCCC(C)Nc1c2ccc(Cl)cc2nc2ccc(OC)cc12` (stereo not shown) [Quinacrine, quinacrine], in the series with SARS-Cov-2, the “Antiviral effect against SARS-CoV-2” value is “antiviral effects”.
Turning to `Cc1ccc(C(=O)Nc2ccc(S(=O)(=O)O)c3cc(S(=O)(=O)O)cc(S(=O)(=O)O)c23)cc1NC(=O)c1cccc(NC(=O)Nc2cccc(C(=O)Nc3cc(C(=O)Nc4ccc(S(=O)(=O)O)c5cc(S(=O)(=O)O)cc(S(=O)(=O)O)c45)ccc3C)c2)c1` [Suramin], in the series on SARS-Cov-2, the “Antiviral effect against SARS-CoV-2” value is reported as “antiviral effects”. For the same compound, the “Inhibition of RdRp” value in the series on SARS-CoV-2 nsp12 (RdRp) is “potent inhibitor”.
